Experimental data taken from patent US10538555B2, “Macrocyclic inhibitors of the PD-1/PD-L1 and CD80(B7-1)/PD-L1 protein/protein interactions” (BRISTOL-MYERS SQUIBB COMPANY, priority 2014, dated 2020).
*1 amine or outer side, *2 acyl side, *3 side chain or, on linkers, in order; H or OH if unused. Where a SMILES comes first, the peptide text is derived from it. Bridges are numbered along the chain shown (N, C = ends). [ ]: non-standard residue; d: D form. ξ: configuration not given here. Trp(1-CH2COOH) = N[C@@H](Cc1cn(CC(=O)O)c2ccccc12)C(=O)O; Phe(3,4,5-F3) = N[C@@H](Cc1cc(F)c(F)c(F)c1)C(=O)O; Phe(3,4-F2) = N[C@@H](Cc1ccc(F)c(F)c1)C(=O)O; d(cisHyp) = O=C(O)[C@H]1C[C@@H](O)CN1; Bta = N[C@@H](Cc1csc2ccccc12)C(=O)O; Hyp = O=C(O)[C@@H]1C[C@@H](O)CN1; NMeF = CN[C@@H](Cc1ccccc1)C(=O)O; X1 = O=C([C@H]1COCCN1[*:1])[*:2]; dPip(4-aza) = O=C(O)[C@H]1CNCCN1; hPhe = N[C@@H](CCc1ccccc1)C(=O)O; dHyp = O=C(O)[C@H]1C[C@H](O)CN1; NMeNle = CCCC[C@H](NC)C(=O)O; Tle = CC(C)(C)[C@H](N)C(=O)O; ξY = NC(Cc1ccc(O)cc1)C(=O)O; Pip = O=C(O)[C@@H]1CCCCN1; hSer = N[C@@H](CCO)C(=O)O; NMeA = CN[C@@H](C)C(=O)O; Orn = NCCC[C@H](N)C(=O)O; dThz = O=C(O)[C@H]1CSCN1; Dab = NCC[C@H](N)C(=O)O; ξC = NC(CS)C(=O)O; Sar = CNCC(=O)O

These molecules were tested against T1, Human PD-L1/PD-1 (Homo sapiens, UniProt Q9NZQ7) (assay: HTRF Human PD-L1/PD-1 binding assay (PD-1-Ig/PD-L1-His)). Details: PD-L1-His 10 nM, PD-1-Ig 20 nM; class symbol; read-out: HTRF Human PD-L1/PD-1 Binding Assay IC50 Range.
T1 construct: TVMV protease cleavage site (C); made in house; host or cells: HEK293T cells
T1 sequence (Q9NZQ7 with tags, fused parts or gaps): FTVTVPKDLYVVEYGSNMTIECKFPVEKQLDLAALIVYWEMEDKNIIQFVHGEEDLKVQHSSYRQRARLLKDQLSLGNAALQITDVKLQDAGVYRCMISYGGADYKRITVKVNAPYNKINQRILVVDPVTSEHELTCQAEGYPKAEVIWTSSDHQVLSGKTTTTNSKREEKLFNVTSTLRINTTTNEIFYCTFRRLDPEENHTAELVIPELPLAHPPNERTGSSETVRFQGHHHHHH
Procedure, shortened: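 HTRF read-out (665/620 nm ratio) after 30 min equilibration with Eu-cryptate anti-Ig mAb (1 nM) and APC anti-His mAb (20 nM). Peptides preincubated 15 min with PD-L1-His (10 nM), then PD-1-Ig (20 nM) added for 15 min.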

Compound	IC50
CCCC[C@H]1C(=O)N(C)[C@@H](C)C(=O)N[C@@H](CCCNC(=N)N)C(=O)NC(C(=O)NCC(N)=O)CSCC(=O)N[C@@H](Cc2ccc(O)cc2)C(=O)N(C)[C@@H](C)C(=O)N[C@@H](CC(N)=O)C(=O)N2CCC[C@H]2C(=O)N[C@@H](Cc2cnc[nH]2)C(=O)N[C@H](CO)C(=O)N2CCC[C@H]2C(=O)N[C@@H](Cc2c[nH]c3ccccc23)C(=O)N[C@@H](CO)C(=O)N[C@@H](Cc2c[nH]c3ccccc23)C(=O)N1C (stereo partly drawn) [Example 9117] ({CH2CO}-Y[NMeA]NPH[dS]PWSW[NMeNle][NMeA]R[ξC]G-NH2; thioether N-14)	10 to 99.9 nM
CCCC[C@H]1C(=O)N2C[C@H](O)C[C@@H]2C(=O)N[C@@H](CC(=O)O)C(=O)N[C@@H](C(C)C)C(=O)N(C)[C@@H](Cc2ccccc2)C(=O)N[C@@H](Cc2ccc(OC)cc2)C(=O)N2CCOC[C@@H]2C(=O)N[C@@H](Cc2c[nH]c3ccccc23)C(=O)N[C@@H](Cc2ccc(O)cc2)C(=O)N[C@@H](CCOC)C(=O)N[C@H](C(=O)NCC(N)=O)CSCC(=O)N[C@@H](Cc2cc(F)c(F)c(F)c2)C(=O)N(C)[C@@H](Cc2ccccc2)C(=O)N1C [Example 10180] ({CH2CO}-[Phe(3,4,5-F3)][NMeF][NMeNle][d(cisHyp)]DV[NMeF]Y(Me)[X1]WY[hSer](Me)CG-NH2; thioether N-13)	10 to 99.9 nM
CCCC[C@H]1C(=O)N2CCC[C@@H]2C(=O)N[C@@H](CC(=O)O)C(=O)N[C@@H](C(C)(C)C)C(=O)N(C)[C@@H](Cc2ccccc2)C(=O)N[C@@H](Cc2ccc(O)cc2)C(=O)N2CCOC[C@@H]2C(=O)N[C@@H](Cc2c[nH]c3ccccc23)C(=O)N[C@@H](Cc2ccc(O)cc2)C(=O)N[C@@H](CC(C)C)C(=O)N[C@H](C(=O)NCC(N)=O)CSCC(=O)N[C@@H](Cc2cc(F)c(F)c(F)c2)C(=O)N(C)[C@@H](Cc2ccccc2)C(=O)N1C [Example 3223] ({CH2CO}-[Phe(3,4,5-F3)][NMeF][NMeNle][dP]D[Tle][NMeF]Y[X1]WYLCG-NH2; thioether N-13)	1 to 9.9 nM
CCCC[C@H]1C(=O)N(C)[C@@H](CCCC)C(=O)N[C@@H](CCC(=O)O)C(=O)NC(C(=O)NCC(N)=O)CSCC(=O)N[C@@H](Cc2ccc(O)cc2)C(=O)N(C)[C@@H](C)C(=O)N[C@@H](CC(N)=O)C(=O)N2CCC[C@H]2C(=O)N[C@@H](CC(N)=O)C(=O)N[C@@H](CC(C)C)C(=O)N2CCC[C@H]2C(=O)N[C@@H](Cc2c[nH]c3ccccc23)C(=O)N[C@@H](CCN)C(=O)N[C@@H](Cc2c[nH]c3ccccc23)C(=O)N1C (stereo partly drawn) [Example 9180] ({CH2CO}-Y[NMeA]NPNLPW[Dab]W[NMeNle][NMeNle]E[ξC]G-NH2; thioether N-14)	1 to 9.9 nM
CCCC[C@H]1C(=O)N(C)[C@@H](CCCC)C(=O)N[C@@H](CCC(=O)O)C(=O)N[C@H](C(=O)NCC(N)=O)CSCC(=O)N[C@@H](Cc2ccc(O)cc2)C(=O)N(C)[C@@H](C)C(=O)N[C@@H](CC(=O)O)C(=O)N2CCC[C@H]2C(=O)N[C@@H](Cc2c[nH]cn2)C(=O)N[C@@H](CCC(N)=O)C(=O)N2C[C@H](O)C[C@H]2C(=O)N[C@@H](Cc2c[nH]c3ccccc23)C(=O)N[C@@H](CCC(=O)O)C(=O)N[C@@H](Cc2c[nH]c3ccccc23)C(=O)N1C [Example 5158] ({CH2CO}-Y[NMeA]DPHQ[Hyp]WEW[NMeNle][NMeNle]ECG-NH2; thioether N-14)	10 to 99.9 nM

Continued, values first:

IC50	Compound
1 to 9.9 nM	CCCC[C@H]1C(=O)N2C[C@H](O)C[C@@H]2C(=O)N[C@@H](CC(=O)O)C(=O)N[C@@H](C(C)C)C(=O)N(C)[C@@H](Cc2ccccc2)C(=O)N[C@@H](CCC(=O)O)C(=O)N2CCNC[C@@H]2C(=O)N[C@@H](Cc2c[nH]c3ccccc23)C(=O)N[C@@H](Cc2ccc(O)cc2)C(=O)N[C@@H](CCCN)C(=O)N[C@H](C(=O)NCC(N)=O)CSCC(=O)N[C@@H](Cc2cc(F)c(F)c(F)c2)C(=O)N(C)[C@@H](Cc2ccccc2)C(=O)N1C [Example 10166] ({CH2CO}-[Phe(3,4,5-F3)][NMeF][NMeNle][d(cisHyp)]DV[NMeF]E[dPip(4-aza)]WY[Orn]CG-NH2; thioether N-13)
1 to 9.9 nM	CCCC[C@H]1C(=O)N(C)[C@@H](CCCC)C(=O)N[C@@H](CCC(=O)O)C(=O)N[C@H](C(=O)NCC(N)=O)CSCC(=O)N[C@@H](Cc2ccc(OC)cc2)C(=O)N(C)[C@@H](C)C(=O)N[C@@H](CC(N)=O)C(=O)N2CCC[C@H]2C(=O)N[C@@H](Cc2cnc[nH]2)C(=O)N[C@@H](CCC(=O)O)C(=O)N2C[C@H](O)C[C@H]2C(=O)N[C@@H](Cc2c[nH]c3ccccc23)C(=O)N[C@@H](CCN)C(=O)N[C@@H](Cc2c[nH]c3ccccc23)C(=O)N1C [Example 7109] ({CH2CO}-Y(Me)[NMeA]NPHE[Hyp]W[Dab]W[NMeNle][NMeNle]ECG-NH2; thioether N-14)
1 to 9.9 nM	CCCC[C@H]1C(=O)N(C)[C@@H](CCCC)C(=O)N[C@@H](C)C(=O)N[C@H](C(=O)NCC(N)=O)CSCC(=O)N[C@@H](Cc2ccc(O)cc2)C(=O)N2CCCC[C@H]2C(=O)N[C@@H](CC(=O)O)C(=O)N2CCC[C@H]2C(=O)N[C@@H](Cc2cnc[nH]2)C(=O)N[C@@H](CCC(N)=O)C(=O)N2C[C@H](O)C[C@H]2C(=O)N[C@@H](Cc2c[nH]c3ccccc23)C(=O)N[C@@H](CO)C(=O)N[C@@H](Cc2c[nH]c3ccccc23)C(=O)N1C [Example 1261] ({CH2CO}-Y[Pip]DPHQ[Hyp]WSW[NMeNle][NMeNle]ACG-NH2; thioether N-14)
1 to 9.9 nM	CCCC[C@H]1C(=O)N(C)[C@@H](CCCC)C(=O)N[C@@H](CCCCN)C(=O)N[C@H](C(=O)NCC(N)=O)CSCC(=O)N[C@@H](Cc2ccc(O)cc2)C(=O)N(C)[C@@H](C)C(=O)N[C@@H](CC(N)=O)C(=O)N2CCC[C@H]2C(=O)N[C@@H](Cc2cnc[nH]2)C(=O)N[C@@H](CCC(=O)O)C(=O)N2C[C@H](O)C[C@H]2C(=O)N[C@@H](Cc2c[nH]c3ccccc23)C(=O)N[C@@H](CO)C(=O)N[C@@H](Cc2cn(CC(=O)O)c3ccccc23)C(=O)N1C [Example 6297] ({CH2CO}-Y[NMeA]NPHE[Hyp]WS[Trp(1-CH2COOH)][NMeNle][NMeNle]KCG-NH2; thioether N-14)
1 to 9.9 nM	CCCC[C@H]1C(=O)N2CCC[C@@H]2C(=O)N[C@@H](CC(=O)O)C(=O)N[C@@H](C(C)C)C(=O)N(C)[C@@H](Cc2ccccc2)C(=O)N[C@@H](CCCN)C(=O)N2CCC[C@@H]2C(=O)N[C@@H](Cc2c[nH]c3ccccc23)C(=O)N[C@@H](Cc2ccc(O)cc2)C(=O)N[C@@H](CC(C)C)C(=O)N[C@H](C(=O)NCC(N)=O)CSCC(=O)N[C@@H](Cc2cc(F)c(F)c(F)c2)C(=O)N(C)[C@@H](Cc2ccccc2)C(=O)N1C [Example 10104] ({CH2CO}-[Phe(3,4,5-F3)][NMeF][NMeNle][dP]DV[NMeF][Orn][dP]WYLCG-NH2; thioether N-13)
1 to 9.9 nM	CCCC[C@H]1C(=O)N2C[C@@H](O)C[C@@H]2C(=O)N[C@@H](CC(=O)O)C(=O)N[C@@H](C(C)C)C(=O)N(C)[C@@H](Cc2ccccc2)C(=O)N[C@@H](Cc2ccc(O)cc2)C(=O)N2C[C@H](O)C[C@@H]2C(=O)N[C@@H](Cc2c[nH]c3ccccc23)C(=O)N[C@@H](Cc2ccc(O)cc2)C(=O)N[C@@H](CCCN)C(=O)N[C@H](C(=O)NCC(N)=O)CSCC(=O)N[C@@H](Cc2cc(F)c(F)c(F)c2)C(=O)N(C)[C@@H](Cc2ccccc2)C(=O)N1C [Example 9368] ({CH2CO}-[Phe(3,4,5-F3)][NMeF][NMeNle][dHyp]DV[NMeF]Y[d(cisHyp)]WY[Orn]CG-NH2; thioether N-13)
1 to 9.9 nM	CCCC[C@H]1C(=O)N2C[C@H](O)C[C@@H]2C(=O)N[C@@H](CC(=O)O)C(=O)N[C@@H](C(C)C)C(=O)N(C)[C@@H](Cc2ccccc2)C(=O)N[C@@H](CC(N)=O)C(=O)N2C[C@H](O)C[C@@H]2C(=O)N[C@@H](Cc2c[nH]c3ccccc23)C(=O)NC(Cc2ccc(O)cc2)C(=O)N[C@@H](CCC(=O)O)C(=O)N[C@H](C(=O)NCC(N)=O)CSCC(=O)N[C@@H](Cc2ccc(F)c(F)c2)C(=O)N(C)[C@@H](Cc2ccccc2)C(=O)N1C (stereo partly drawn) [Example 9317] ({CH2CO}-[Phe(3,4-F2)][NMeF][NMeNle][d(cisHyp)]DV[NMeF]N[d(cisHyp)]W[ξY]ECG-NH2; thioether N-13)

Same assay, conditions: PD-L1-His 10 nM, PD-1-Ig 20 nM; read-out: HTRF Human PD-L1/PD-1 Binding Assay IC50

IC50	Compound
1860 nM	CCCC[C@H]1C(=O)N(C)CC(=O)N[C@@H](CC(=O)O)C(=O)N[C@@H](CCc2ccccc2)C(=O)N(C)[C@@H](Cc2ccccc2)C(=O)N[C@@H](Cc2ccc(O)cc2)C(=O)N(C)CC(=O)N[C@@H](Cc2c[nH]c3ccccc23)C(=O)N[C@@H](Cc2ccc(O)cc2)C(=O)N[C@@H](CC(C)C)C(=O)N[C@H](C(=O)NCC(N)=O)CSCC(=O)N[C@@H](Cc2ccccc2)C(=O)N(C)[C@@H](Cc2ccccc2)C(=O)N1C [Example 3226] ({CH2CO}-F[NMeF][NMeNle][Sar]D[hPhe][NMeF]Y[Sar]WYLCG-NH2; thioether N-13)
27 nM	CCCC[C@H]1C(=O)N(C)[C@@H](C)C(=O)N[C@@H](CCCNC(=N)N)C(=O)NC(C(=O)NCC(N)=O)CSCC(=O)N[C@@H](Cc2ccc(O)cc2)C(=O)N(C)[C@@H](C)C(=O)N[C@@H](CC(N)=O)C(=O)N2CCC[C@H]2C(=O)N[C@@H](Cc2cnc[nH]2)C(=O)N[C@H](CO)C(=O)N2CCC[C@H]2C(=O)N[C@@H](Cc2c[nH]c3ccccc23)C(=O)N[C@@H](CO)C(=O)N[C@@H](Cc2csc3ccccc23)C(=O)N1C (stereo partly drawn) [Example 9118] ({CH2CO}-Y[NMeA]NPH[dS]PWS[Bta][NMeNle][NMeA]R[ξC]G-NH2; thioether N-14)
2.5 nM	CCCC[C@H]1C(=O)N2CCC[C@@H]2C(=O)N[C@@H](CC(=O)O)C(=O)N[C@@H](C(C)C)C(=O)N(C)[C@@H](Cc2ccccc2)C(=O)N[C@@H](CC(=O)O)C(=O)N2CSC[C@@H]2C(=O)N[C@@H](Cc2c[nH]c3ccccc23)C(=O)N[C@@H](Cc2ccc(O)cc2)C(=O)N[C@@H](CC(C)C)C(=O)N[C@H](C(=O)NCC(N)=O)CSCC(=O)N[C@@H](Cc2cc(F)c(F)c(F)c2)C(=O)N(C)[C@@H](Cc2ccccc2)C(=O)N1C [Example 10091] ({CH2CO}-[Phe(3,4,5-F3)][NMeF][NMeNle][dP]DV[NMeF]D[dThz]WYLCG-NH2; thioether N-13)
